Reference: ChEMBL document CHEMBL1134625 (J Med Chem, 2001)

Tests used:
[1] = target: T1, 5-hydroxytryptamine receptor 1A (Homo sapiens, UniProt P08908)
T1 sequence (P08908 whole entry): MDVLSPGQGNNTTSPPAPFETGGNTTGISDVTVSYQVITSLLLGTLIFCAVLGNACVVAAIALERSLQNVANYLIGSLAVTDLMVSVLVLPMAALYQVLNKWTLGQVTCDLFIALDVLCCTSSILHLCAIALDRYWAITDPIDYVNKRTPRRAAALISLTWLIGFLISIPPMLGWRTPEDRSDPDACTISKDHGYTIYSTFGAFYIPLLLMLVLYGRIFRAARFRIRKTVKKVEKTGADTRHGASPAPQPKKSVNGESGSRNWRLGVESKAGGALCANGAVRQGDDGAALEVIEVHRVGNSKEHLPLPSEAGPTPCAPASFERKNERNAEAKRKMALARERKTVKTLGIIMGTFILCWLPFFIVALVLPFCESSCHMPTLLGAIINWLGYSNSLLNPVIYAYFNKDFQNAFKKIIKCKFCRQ

[2] = target: 5-hydroxytryptamine receptor 2A (Homo sapiens, UniProt P28223)
Chain of 5-hydroxytryptamine receptor 2A (P28223 whole entry): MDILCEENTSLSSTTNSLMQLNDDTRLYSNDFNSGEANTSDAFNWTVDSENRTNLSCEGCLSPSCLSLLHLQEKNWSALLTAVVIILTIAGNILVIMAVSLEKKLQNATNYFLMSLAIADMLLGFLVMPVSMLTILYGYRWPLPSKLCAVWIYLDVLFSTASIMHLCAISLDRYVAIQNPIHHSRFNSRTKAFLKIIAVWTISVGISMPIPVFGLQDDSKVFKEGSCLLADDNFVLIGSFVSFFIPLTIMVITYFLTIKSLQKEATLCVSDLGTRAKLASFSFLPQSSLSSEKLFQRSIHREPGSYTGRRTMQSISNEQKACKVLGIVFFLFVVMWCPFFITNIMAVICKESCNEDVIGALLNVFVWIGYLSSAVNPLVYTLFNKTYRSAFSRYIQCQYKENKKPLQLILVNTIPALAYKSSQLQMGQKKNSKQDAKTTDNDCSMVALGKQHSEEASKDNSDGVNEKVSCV

[3] = target: T2, 5-hydroxytryptamine receptor 2C (Homo sapiens, UniProt P28335)
T2 sequence (P28335 whole entry): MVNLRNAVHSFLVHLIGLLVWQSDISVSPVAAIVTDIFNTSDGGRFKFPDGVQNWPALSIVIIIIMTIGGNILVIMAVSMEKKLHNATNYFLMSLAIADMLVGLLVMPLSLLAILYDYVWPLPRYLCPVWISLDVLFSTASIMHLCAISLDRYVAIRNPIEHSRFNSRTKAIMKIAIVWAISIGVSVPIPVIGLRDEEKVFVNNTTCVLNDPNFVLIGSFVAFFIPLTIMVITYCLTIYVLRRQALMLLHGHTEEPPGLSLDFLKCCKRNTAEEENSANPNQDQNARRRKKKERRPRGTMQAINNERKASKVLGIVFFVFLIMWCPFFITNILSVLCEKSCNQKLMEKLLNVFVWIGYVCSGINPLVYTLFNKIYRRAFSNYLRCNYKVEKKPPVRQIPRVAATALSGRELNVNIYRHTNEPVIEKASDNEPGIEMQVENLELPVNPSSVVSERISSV

[4] = target: 5-hydroxytryptamine receptor 7 (Homo sapiens, UniProt P34969)
Chain of 5-hydroxytryptamine receptor 7 (P34969 whole entry): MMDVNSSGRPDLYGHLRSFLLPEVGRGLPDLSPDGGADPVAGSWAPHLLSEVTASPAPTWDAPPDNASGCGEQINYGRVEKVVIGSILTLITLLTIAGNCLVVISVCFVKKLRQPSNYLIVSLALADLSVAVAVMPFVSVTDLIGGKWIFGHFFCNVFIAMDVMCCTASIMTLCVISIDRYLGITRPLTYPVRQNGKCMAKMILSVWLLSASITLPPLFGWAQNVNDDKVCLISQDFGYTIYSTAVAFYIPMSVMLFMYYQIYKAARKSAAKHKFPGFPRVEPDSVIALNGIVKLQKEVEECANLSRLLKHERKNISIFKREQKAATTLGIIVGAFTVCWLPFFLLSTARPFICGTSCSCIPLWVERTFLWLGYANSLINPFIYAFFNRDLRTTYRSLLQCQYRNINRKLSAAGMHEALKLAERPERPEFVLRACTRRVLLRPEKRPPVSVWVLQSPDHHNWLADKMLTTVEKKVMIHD

Cannabinoid receptor 1 = Cannabinoid receptor 1 (Homo sapiens, UniProt P21554)
Chain of Cannabinoid receptor 1 (P21554 whole entry): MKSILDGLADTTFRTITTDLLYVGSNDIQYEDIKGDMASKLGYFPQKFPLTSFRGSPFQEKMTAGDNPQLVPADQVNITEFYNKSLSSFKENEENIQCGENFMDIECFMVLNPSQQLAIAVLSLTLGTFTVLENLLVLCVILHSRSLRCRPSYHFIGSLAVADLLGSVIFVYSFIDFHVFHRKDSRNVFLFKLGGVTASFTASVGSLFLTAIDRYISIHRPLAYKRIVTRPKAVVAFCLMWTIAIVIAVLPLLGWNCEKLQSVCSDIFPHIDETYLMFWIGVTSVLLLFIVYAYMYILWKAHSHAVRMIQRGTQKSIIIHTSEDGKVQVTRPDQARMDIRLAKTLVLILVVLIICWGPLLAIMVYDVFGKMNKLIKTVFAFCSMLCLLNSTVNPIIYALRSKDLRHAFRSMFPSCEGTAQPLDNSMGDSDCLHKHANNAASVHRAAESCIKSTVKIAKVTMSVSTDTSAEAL

D(2) dopamine receptor = D(2) dopamine receptor (Homo sapiens, UniProt P14416)
Chain of D(2) dopamine receptor (P14416 whole entry): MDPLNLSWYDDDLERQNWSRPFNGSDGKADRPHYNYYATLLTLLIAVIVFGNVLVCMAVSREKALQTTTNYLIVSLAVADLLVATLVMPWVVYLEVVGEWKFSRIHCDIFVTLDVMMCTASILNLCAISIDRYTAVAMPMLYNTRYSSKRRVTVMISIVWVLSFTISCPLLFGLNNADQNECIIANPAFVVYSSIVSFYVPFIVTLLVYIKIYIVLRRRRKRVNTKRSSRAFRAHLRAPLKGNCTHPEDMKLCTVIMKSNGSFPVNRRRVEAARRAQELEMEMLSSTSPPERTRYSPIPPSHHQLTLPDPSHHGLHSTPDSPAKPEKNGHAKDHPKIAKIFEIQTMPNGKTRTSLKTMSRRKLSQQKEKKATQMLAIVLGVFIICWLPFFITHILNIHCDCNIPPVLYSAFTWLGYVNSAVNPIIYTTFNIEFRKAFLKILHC

D(1A) dopamine receptor = D(1A) dopamine receptor (Homo sapiens, UniProt P21728)
Chain of D(1A) dopamine receptor (P21728 whole entry): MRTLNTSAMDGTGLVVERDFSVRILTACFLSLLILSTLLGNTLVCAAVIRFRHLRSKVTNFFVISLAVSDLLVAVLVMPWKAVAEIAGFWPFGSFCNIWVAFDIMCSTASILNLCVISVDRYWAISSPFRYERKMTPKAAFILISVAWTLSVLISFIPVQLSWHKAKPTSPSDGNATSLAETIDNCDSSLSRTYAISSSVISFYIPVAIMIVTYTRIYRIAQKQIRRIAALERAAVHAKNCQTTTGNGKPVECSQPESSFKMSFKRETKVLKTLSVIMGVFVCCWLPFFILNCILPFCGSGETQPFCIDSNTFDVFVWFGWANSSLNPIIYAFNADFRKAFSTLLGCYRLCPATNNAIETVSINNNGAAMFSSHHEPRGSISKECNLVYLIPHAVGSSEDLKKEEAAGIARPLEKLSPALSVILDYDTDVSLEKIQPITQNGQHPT

[5] = target: Sodium-dependent dopamine transporter (Homo sapiens, UniProt Q01959)
Chain of Sodium-dependent dopamine transporter (Q01959 whole entry): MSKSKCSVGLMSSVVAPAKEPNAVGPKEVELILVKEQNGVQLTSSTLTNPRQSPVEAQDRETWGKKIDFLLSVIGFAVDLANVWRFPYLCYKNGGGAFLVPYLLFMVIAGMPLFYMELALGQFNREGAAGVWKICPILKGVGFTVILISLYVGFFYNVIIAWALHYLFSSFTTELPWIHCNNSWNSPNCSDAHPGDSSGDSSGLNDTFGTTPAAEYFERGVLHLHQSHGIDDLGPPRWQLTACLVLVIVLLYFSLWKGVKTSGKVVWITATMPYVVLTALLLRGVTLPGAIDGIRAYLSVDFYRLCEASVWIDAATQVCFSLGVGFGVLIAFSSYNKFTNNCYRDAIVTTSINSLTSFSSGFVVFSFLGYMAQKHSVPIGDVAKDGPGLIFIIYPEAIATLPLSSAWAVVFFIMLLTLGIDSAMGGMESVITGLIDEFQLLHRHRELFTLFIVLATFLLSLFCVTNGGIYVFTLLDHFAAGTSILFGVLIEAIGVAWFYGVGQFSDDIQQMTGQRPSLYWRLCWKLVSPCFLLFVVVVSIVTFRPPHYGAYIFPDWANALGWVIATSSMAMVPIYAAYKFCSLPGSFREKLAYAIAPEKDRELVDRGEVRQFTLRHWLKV

Histamine H1 receptor = Histamine H1 receptor (Homo sapiens, UniProt P35367)
Chain of Histamine H1 receptor (P35367 whole entry): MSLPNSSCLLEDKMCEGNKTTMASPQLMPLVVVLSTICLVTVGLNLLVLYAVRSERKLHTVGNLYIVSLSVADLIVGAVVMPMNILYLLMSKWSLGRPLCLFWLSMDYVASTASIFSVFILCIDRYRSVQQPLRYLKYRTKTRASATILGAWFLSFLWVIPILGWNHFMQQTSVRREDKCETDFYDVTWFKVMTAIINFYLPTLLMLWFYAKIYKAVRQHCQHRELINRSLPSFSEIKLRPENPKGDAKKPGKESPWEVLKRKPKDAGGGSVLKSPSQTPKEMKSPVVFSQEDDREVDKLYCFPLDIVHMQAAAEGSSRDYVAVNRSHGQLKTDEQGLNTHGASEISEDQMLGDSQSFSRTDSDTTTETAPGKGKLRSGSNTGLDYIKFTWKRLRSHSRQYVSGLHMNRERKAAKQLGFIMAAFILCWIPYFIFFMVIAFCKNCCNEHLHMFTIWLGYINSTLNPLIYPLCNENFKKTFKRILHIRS

Histamine H2 receptor = Histamine H2 receptor (Homo sapiens, UniProt P25021)
[6] = target: Sodium-dependent noradrenaline transporter (Homo sapiens, UniProt P23975)
Chain of Sodium-dependent noradrenaline transporter (P23975 whole entry): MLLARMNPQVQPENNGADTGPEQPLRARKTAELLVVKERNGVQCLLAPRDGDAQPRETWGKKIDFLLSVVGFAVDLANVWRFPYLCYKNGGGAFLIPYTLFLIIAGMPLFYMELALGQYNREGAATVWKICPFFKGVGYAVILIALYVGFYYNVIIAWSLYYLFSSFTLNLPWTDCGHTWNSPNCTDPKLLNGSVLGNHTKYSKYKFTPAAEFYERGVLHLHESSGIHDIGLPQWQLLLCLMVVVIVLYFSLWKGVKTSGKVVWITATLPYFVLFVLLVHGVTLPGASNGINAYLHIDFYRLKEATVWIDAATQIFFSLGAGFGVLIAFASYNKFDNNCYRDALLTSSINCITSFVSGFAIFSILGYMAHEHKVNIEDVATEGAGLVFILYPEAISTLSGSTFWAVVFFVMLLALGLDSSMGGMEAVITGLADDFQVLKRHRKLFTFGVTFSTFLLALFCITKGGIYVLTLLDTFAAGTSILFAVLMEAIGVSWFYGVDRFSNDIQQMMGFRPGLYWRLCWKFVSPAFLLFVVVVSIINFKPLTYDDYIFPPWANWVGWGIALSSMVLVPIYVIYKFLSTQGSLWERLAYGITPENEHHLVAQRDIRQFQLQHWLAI

Vasopressin V1a receptor = Vasopressin V1a receptor (Homo sapiens, UniProt P37288)
Chain of Vasopressin V1a receptor (P37288 whole entry): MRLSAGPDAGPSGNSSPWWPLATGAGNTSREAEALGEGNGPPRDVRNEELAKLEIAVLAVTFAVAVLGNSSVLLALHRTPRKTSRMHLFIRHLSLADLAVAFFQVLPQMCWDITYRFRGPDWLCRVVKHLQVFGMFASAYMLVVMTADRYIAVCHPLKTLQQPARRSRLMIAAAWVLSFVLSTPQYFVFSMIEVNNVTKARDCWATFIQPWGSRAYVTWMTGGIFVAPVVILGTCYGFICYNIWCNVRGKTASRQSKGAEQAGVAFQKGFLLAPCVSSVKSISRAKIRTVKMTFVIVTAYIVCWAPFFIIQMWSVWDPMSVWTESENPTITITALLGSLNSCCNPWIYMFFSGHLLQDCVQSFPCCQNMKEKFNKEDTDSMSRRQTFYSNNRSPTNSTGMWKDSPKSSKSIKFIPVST

[7] = target: T3, Adrenergic receptor alpha-1 (Homo sapiens, UniProt P35348+P25100+P35368); format: protein assay
T3 sequence (P35348 whole entry): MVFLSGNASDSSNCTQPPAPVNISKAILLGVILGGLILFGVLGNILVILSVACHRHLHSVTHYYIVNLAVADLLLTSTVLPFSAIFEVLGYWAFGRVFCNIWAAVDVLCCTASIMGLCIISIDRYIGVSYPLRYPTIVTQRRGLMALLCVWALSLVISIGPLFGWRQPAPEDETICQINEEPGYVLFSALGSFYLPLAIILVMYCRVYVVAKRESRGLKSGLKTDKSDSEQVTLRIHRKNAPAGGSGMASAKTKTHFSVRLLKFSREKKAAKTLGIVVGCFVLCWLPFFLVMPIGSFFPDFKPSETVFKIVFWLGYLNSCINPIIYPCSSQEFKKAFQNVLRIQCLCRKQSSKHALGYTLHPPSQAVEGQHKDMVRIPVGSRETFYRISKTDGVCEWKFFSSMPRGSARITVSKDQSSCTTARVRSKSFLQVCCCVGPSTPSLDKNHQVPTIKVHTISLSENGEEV
T3 sequence (P25100 whole entry): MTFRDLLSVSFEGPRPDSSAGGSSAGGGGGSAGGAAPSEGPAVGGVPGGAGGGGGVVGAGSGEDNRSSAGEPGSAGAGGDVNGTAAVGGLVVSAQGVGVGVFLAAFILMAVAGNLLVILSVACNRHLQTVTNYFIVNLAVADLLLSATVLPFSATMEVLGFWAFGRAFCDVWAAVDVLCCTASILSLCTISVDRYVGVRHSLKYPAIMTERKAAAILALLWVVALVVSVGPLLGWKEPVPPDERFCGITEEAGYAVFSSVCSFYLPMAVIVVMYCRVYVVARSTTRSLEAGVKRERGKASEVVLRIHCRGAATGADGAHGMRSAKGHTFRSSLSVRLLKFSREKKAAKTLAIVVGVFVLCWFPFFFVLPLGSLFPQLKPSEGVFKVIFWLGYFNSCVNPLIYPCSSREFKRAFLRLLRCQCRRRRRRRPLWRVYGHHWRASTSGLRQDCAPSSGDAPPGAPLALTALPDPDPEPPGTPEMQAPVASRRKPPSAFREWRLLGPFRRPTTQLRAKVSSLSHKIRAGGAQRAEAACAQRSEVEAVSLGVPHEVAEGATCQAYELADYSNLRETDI
T3 sequence (P35368 whole entry): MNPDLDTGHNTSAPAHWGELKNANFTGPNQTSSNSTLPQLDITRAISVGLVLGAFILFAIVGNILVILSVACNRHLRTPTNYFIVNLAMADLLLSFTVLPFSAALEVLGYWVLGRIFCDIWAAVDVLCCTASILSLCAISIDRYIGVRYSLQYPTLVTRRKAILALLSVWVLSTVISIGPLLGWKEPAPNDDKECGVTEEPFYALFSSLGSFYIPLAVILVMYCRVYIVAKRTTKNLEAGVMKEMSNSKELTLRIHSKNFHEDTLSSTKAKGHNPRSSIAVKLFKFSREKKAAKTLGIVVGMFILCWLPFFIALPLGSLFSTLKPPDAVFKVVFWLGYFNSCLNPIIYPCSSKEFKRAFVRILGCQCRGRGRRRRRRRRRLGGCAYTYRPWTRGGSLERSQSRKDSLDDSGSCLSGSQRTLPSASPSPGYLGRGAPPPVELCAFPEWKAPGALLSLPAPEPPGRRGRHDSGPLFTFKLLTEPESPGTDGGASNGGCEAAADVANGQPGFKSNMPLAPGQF

[8] = target: 5-hydroxytryptamine receptor 1B (Homo sapiens, UniProt P28222)
Chain of 5-hydroxytryptamine receptor 1B (P28222 whole entry): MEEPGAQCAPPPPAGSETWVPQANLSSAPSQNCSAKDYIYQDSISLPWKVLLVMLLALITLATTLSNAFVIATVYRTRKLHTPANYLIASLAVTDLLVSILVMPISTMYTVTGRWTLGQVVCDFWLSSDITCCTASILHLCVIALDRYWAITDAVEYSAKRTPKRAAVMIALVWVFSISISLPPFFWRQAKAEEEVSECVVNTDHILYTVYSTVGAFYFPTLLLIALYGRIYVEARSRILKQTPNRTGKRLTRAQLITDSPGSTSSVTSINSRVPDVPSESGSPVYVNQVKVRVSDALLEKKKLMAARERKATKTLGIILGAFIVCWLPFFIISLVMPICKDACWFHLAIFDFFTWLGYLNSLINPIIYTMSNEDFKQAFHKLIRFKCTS

N#Cc1ccc(CCOC(=O)NC2CCN(CCCC(c3ccc(F)cc3)c3ccc(F)cc3)CC2)cc1
IC50 [1]: 985 nM
IC50 [2]: 683 nM
IC50 [3]: 2760 nM
IC50 [4]: 998 nM
IC50 (Cannabinoid receptor 1): 6090 nM
IC50 (D(2) dopamine receptor): 551 nM
IC50 (D(1A) dopamine receptor): 376 nM
IC50 [5]: 781 nM
IC50 (Histamine H1 receptor): 454 nM
IC50 (Histamine H2 receptor): 368 nM
IC50 [6]: 1140 nM
IC50 (Vasopressin V1a receptor): 3650 nM
IC50 [7]: 417 nM
IC50 [8]: 3580 nM
